Test results taken from ChEMBL document CHEMBL5233266, “β-Carboline as a Privileged Scaffold for Multitarget Strategies in Alzheimer's Disease Therapy” (J Med Chem, 2021).
≈ marks a conversion by molar mass, not a printed value.

Key:
[1] = target: cGMP-specific 3',5'-cyclic phosphodiesterase (Homo sapiens, UniProt O76074); assay: Inhibition of PDE5 (unknown origin)
[2] = Aqueous solubility of compound; type: physicochemical; details: water
Acetylcholinesterase = Acetylcholinesterase (Homo sapiens, UniProt P22303); assay: Inhibition of AChE (unknown origin)
Sequence of Acetylcholinesterase (P22303 whole entry): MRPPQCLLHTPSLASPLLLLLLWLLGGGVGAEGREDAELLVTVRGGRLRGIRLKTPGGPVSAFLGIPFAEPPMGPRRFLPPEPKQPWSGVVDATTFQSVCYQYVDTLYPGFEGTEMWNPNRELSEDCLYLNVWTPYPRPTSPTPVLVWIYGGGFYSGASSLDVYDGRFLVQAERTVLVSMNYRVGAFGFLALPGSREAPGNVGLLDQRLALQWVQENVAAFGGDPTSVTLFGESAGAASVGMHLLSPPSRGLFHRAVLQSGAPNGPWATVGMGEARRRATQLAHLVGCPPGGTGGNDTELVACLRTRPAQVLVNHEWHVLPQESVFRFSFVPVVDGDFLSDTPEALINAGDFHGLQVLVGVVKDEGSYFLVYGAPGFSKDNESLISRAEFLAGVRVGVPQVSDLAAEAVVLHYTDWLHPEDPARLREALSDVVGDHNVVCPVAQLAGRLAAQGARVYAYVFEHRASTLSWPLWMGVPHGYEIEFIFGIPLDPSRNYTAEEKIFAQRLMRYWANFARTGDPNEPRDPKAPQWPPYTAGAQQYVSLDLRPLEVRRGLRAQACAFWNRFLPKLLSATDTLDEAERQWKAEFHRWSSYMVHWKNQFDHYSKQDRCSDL

[3] = target: 5-hydroxytryptamine receptor 2C (Rattus norvegicus, UniProt P08909); assay: Displacement of [3H]-ketanserin from rat 5-HT2C expressed in mouse NIH/3T3 cells assessed as inhibition constant by Cheng-Prusoff equation analysis; type: cell-based
Sequence of 5-hydroxytryptamine receptor 2C (P08909 whole entry): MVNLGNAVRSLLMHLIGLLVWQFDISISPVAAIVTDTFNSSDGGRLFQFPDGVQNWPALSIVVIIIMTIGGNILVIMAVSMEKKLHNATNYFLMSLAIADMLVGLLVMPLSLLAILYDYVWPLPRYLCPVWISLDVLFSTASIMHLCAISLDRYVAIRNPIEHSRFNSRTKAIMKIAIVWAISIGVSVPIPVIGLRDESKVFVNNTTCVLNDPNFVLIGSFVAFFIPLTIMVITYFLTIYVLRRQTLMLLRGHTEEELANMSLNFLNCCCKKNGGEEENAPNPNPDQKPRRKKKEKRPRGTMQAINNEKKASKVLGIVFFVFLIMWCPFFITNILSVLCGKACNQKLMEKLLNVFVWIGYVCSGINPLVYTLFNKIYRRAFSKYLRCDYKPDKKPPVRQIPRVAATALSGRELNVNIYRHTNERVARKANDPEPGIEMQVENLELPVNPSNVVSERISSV

[4] = target: 5-hydroxytryptamine receptor 2B (Homo sapiens, UniProt P41595); assay: Binding affinity to 5-HT2B (unknown origin) assessed as equilibrium binding constant
Sequence of 5-hydroxytryptamine receptor 2B (Homo sapiens, UniProt P41595) (P41595 whole entry): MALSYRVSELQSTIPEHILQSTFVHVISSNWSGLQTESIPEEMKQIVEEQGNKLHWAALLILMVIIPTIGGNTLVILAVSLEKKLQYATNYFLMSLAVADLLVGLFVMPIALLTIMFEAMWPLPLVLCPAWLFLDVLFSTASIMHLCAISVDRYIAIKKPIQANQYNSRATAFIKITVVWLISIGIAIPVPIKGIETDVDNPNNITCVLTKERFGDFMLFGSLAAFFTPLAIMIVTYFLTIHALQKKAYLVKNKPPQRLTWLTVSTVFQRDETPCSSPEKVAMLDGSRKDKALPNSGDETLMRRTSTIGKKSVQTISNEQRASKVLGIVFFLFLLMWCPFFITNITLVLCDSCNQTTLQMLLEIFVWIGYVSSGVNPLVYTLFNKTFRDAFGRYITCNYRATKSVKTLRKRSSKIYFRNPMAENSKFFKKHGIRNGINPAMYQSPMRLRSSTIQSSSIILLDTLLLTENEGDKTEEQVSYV

[5] = target: 5-hydroxytryptamine receptor 2A (Rattus norvegicus, UniProt P14842); assay: (§1) Displacement of [3H]-ketanserin from rat 5-HT2A expressed in mouse NIH/3T3 cells assessed as inhibition constant by Cheng-Prusoff equation analysis; type: cell-based
Sequence of 5-hydroxytryptamine receptor 2A (P14842 whole entry): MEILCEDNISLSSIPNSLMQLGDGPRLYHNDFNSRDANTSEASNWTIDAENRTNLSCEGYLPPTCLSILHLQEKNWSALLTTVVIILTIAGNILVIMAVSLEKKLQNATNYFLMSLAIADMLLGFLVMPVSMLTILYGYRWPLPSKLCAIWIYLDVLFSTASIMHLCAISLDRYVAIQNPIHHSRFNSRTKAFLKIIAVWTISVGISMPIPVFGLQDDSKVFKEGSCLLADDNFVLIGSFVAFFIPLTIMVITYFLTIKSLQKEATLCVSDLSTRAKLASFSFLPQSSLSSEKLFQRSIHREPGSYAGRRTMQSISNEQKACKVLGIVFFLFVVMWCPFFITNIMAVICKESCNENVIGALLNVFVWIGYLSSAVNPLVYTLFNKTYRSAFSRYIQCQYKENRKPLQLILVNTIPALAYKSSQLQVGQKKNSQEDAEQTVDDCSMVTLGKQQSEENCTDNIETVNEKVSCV

[6] = target: 5-hydroxytryptamine receptor 2B (Rattus norvegicus, UniProt P30994); assay: Displacement of [3H]-ketanserin from rat 5-HT2B expressed in mouse NIH/3T3 cells assessed as inhibition constant by Cheng-Prusoff equation analysis; type: cell-based
Sequence of 5-hydroxytryptamine receptor 2B (Rattus norvegicus, UniProt P30994) (P30994 whole entry): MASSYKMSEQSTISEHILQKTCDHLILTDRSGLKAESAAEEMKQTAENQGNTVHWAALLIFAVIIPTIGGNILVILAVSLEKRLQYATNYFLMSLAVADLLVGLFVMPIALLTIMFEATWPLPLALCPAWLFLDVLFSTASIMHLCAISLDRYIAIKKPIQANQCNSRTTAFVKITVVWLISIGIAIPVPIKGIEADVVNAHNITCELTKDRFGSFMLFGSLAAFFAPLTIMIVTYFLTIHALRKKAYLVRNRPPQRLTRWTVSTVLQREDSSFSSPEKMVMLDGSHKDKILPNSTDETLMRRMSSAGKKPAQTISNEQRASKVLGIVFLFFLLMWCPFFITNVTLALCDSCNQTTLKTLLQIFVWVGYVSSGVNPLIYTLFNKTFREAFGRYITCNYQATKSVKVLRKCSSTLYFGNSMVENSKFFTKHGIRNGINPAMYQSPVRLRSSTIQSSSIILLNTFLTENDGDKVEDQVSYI

[7] = target: T1, Protein deacetylase HDAC6 (Homo sapiens, UniProt Q9UBN7); assay: Inhibition of HDAC6 (unknown origin)
T1 sequence (Q9UBN7 whole entry): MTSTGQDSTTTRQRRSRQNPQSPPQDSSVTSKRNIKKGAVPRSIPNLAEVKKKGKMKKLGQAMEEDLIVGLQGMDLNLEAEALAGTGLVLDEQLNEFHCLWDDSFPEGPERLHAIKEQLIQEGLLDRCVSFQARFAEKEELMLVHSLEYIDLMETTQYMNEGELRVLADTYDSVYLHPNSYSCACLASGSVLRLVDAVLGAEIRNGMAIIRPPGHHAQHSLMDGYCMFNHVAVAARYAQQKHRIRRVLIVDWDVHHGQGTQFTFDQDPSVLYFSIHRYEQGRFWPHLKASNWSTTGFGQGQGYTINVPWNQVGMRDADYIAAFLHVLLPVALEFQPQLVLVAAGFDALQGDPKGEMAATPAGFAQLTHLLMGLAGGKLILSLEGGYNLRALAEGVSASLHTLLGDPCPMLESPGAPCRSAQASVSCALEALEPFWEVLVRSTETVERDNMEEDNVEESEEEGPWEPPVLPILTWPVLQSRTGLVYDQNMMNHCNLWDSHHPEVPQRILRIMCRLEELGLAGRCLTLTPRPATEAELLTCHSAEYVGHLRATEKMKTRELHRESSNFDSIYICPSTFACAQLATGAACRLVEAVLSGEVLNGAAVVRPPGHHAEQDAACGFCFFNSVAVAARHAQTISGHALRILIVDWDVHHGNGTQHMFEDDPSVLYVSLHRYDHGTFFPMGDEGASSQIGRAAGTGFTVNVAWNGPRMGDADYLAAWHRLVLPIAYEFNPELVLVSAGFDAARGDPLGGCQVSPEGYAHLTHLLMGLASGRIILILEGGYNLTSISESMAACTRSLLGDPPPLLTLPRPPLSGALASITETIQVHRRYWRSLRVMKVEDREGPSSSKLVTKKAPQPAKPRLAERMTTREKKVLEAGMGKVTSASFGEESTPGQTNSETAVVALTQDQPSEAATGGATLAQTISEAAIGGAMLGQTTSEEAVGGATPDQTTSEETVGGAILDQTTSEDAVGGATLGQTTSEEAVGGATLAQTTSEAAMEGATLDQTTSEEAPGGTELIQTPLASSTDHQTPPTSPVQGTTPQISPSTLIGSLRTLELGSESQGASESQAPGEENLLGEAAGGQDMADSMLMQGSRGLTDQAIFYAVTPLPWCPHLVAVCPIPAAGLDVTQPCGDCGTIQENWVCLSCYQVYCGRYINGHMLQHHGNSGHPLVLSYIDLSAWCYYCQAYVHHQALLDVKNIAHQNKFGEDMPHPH

Histone deacetylase 2 = Histone deacetylase 2 (Homo sapiens, UniProt Q92769); assay: Inhibition of HDAC2 (unknown origin)
Sequence of Histone deacetylase 2 (Q92769 whole entry): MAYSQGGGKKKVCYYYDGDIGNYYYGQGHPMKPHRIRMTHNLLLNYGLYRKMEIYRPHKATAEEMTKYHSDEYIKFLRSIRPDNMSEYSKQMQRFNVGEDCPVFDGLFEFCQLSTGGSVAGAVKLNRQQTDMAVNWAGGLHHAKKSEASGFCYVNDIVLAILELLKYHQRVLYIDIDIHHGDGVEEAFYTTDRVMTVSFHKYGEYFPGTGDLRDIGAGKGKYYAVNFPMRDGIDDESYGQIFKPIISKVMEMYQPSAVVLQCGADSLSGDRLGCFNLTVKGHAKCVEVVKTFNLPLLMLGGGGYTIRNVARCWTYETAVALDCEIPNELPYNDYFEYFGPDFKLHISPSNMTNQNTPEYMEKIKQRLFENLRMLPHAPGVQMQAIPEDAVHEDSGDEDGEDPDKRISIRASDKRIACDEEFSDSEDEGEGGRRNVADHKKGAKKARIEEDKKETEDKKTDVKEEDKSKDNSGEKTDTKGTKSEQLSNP

Histone deacetylase 1 = Histone deacetylase 1 (Homo sapiens, UniProt Q13547); assay: Inhibition of HDAC1 (unknown origin)
Sequence of Histone deacetylase 1 (Q13547 whole entry): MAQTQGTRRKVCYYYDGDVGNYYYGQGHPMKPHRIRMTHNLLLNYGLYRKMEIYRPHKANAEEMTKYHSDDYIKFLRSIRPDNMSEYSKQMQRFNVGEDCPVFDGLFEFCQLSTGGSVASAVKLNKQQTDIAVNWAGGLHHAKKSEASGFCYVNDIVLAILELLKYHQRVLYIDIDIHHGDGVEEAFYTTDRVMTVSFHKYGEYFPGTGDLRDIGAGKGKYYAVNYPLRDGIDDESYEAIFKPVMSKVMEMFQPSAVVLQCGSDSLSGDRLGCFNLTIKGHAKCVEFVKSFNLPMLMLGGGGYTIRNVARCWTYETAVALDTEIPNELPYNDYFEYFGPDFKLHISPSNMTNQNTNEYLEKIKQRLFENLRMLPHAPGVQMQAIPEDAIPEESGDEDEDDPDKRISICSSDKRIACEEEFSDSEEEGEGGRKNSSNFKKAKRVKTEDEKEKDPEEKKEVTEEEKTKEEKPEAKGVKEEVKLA

[8] = target: GABA-A receptor; anion channel; assay: Displacement of [3H]flunitrazepam from GABAA (unknown origin ) receptor by radioligand binding assay; type: protein-complex assay, Homo sapiens
[9] = target: 5-hydroxytryptamine receptor 2A (Rattus norvegicus) (UniProt P14842); assay: as §1; type: cell-based
Sequence of 5-hydroxytryptamine receptor 2A (Rattus norvegicus) (P14842 whole entry): as the sequence (P14842 whole entry) above

[10] = target: T2, Gamma-aminobutyric acid receptor subunit alpha-2 (Homo sapiens, UniProt P47869); assay: Inhibition of GABAA alpha2 receptor (unknown origin)
T2 sequence (P47869 whole entry): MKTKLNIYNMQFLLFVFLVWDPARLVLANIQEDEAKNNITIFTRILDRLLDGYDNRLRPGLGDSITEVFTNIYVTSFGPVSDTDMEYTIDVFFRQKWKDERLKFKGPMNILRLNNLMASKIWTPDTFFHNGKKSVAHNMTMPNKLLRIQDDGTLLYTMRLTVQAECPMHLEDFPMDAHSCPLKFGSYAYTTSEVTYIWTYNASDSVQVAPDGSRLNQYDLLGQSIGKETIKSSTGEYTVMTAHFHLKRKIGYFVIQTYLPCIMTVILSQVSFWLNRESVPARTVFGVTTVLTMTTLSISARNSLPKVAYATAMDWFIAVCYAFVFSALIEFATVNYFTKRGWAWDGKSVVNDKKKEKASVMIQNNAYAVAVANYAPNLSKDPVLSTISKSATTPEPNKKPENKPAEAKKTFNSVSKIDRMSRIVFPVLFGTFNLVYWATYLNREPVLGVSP

[11] = target: T3, Gamma-aminobutyric acid receptor subunit alpha-1 (Homo sapiens, UniProt P14867); assay: Binding affinity to human recombinant GABAA alpha1 receptor assessed as inhibition constant incubated for 1 hrs by liquid scintillation counting analysis
T3 sequence (P14867 whole entry): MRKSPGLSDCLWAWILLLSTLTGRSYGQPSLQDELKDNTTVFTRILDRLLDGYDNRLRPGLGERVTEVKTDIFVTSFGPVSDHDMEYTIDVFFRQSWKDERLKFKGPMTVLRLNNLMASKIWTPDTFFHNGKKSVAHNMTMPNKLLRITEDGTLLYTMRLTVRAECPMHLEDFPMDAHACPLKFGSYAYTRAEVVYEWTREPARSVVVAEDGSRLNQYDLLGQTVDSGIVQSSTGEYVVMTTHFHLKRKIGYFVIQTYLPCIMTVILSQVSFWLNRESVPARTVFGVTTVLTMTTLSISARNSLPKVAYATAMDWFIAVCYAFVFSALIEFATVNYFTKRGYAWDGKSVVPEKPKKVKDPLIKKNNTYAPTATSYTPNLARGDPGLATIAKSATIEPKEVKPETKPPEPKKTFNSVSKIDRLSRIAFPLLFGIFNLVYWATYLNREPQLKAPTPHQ

[12] = target: T4, Gamma-aminobutyric acid receptor subunit alpha-5 (Homo sapiens, UniProt P31644); assay: Binding affinity to human recombinant GABAA alpha5 receptor assessed as inhibition constant incubated for 1 hrs by liquid scintillation counting analysis
T4 sequence (P31644 whole entry): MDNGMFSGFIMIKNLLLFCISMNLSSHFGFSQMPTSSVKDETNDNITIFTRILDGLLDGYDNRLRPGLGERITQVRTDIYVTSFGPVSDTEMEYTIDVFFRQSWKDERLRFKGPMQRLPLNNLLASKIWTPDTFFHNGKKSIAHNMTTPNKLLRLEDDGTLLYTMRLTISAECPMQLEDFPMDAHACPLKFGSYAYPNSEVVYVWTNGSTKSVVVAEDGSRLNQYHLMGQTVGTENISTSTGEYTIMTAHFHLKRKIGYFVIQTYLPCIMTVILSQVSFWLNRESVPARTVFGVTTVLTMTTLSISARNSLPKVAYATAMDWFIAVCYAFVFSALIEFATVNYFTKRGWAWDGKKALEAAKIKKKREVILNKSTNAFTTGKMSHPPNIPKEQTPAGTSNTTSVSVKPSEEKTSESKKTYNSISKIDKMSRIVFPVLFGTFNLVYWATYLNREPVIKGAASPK

[13] = target: T5, Gamma-aminobutyric acid receptor subunit alpha-3 (Homo sapiens, UniProt P34903); assay: Binding affinity to human recombinant GABAA alpha3 receptor assessed as inhibition constant incubated for 1 hrs by liquid scintillation counting analysis
T5 sequence (P34903 whole entry): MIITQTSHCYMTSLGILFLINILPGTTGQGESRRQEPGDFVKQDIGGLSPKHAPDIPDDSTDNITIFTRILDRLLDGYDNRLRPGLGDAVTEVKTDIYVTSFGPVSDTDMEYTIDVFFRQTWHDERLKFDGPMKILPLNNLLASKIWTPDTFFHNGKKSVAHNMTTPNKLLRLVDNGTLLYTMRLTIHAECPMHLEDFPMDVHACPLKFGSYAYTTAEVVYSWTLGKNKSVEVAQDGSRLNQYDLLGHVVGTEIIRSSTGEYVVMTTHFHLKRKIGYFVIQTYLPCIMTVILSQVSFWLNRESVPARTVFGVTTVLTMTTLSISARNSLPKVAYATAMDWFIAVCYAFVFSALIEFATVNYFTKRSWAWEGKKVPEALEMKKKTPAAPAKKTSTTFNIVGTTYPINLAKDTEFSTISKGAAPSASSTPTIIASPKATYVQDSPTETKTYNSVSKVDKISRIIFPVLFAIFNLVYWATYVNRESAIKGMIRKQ

[14] = target: T4, Gamma-aminobutyric acid receptor subunit alpha-5; assay: Inhibition of GABAA alpha5 receptor (unknown origin)
[15] = target: T6, Gamma-aminobutyric acid receptor subunit alpha-6 (Homo sapiens, UniProt Q16445); assay: Binding affinity to human recombinant GABAA alpha6 receptor assessed as inhibition constant incubated for 1 hrs by liquid scintillation counting analysis
T6 sequence (Q16445 whole entry): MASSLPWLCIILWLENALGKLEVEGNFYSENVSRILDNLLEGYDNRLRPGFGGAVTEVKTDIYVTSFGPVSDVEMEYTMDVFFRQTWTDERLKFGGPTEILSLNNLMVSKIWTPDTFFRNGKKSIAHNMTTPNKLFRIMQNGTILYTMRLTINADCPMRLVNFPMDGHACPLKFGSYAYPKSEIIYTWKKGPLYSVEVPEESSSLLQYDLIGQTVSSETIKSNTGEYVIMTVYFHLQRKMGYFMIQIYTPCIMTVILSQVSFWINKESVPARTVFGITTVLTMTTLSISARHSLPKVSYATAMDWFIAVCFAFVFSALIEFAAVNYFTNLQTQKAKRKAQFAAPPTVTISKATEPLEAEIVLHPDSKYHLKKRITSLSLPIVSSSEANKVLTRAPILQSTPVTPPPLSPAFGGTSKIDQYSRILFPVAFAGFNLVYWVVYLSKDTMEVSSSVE

[16] = target: T3, Gamma-aminobutyric acid receptor subunit alpha-1; assay: Inhibition of GABAA alpha1 receptor (unknown origin)
[17] = target: T5, Gamma-aminobutyric acid receptor subunit alpha-3; assay: Inhibition of GABAA alpha3 receptor (unknown origin)
[18] = target: T6, Gamma-aminobutyric acid receptor subunit alpha-6; assay: Binding affinity to GABAA alpha6 receptor (unknown origin) assessed as inhibition constant
[19] = target: T2, Gamma-aminobutyric acid receptor subunit alpha-2; assay: Binding affinity to human recombinant GABAA alpha2 receptor assessed as inhibition constant incubated for 1 hrs by liquid scintillation counting analysis

In the case of COc1ccc([C@@H]2c3[nH]c4ccccc4c3C[C@@H]3C(=O)N(CCC4CCN(Cc5ccccc5)CC4)CC(=O)N23)cc1, the IC50 [1] is reported as 200 nM, the solubility [2] is reported as 1400 µg/mL (≈ 2490 µM) and the IC50 (Acetylcholinesterase) is reported as 31 nM.

Molecule COc1ccc([C@@H]2c3[nH]c4ccccc4c3C[C@H]3C(=O)N(CCC4CCN(Cc5ccccc5)CC4)CC(=O)N23)cc1 has an IC50 [1] of 3200 nM, a solubility [2] of 420 µg/mL (≈ 746 µM) and an IC50 (Acetylcholinesterase) of 15 nM.

For COc1ccc(CC2NCCc3c2[nH]c2c(C)c(C)ccc32)c(Br)c1OC (configuration not stated), the Ki [3] was 8 nM, the Kb [4] was 0.08 nM and the Ki [5] was 9 nM. For the same molecule, the Ki [6] was 0.08 nM.

In the case of O=C(/C=C/c1ccc(N2CC(=O)N3C(Cc4c([nH]c5ccccc45)C3c3ccc4c(c3)OCO4)C2=O)cc1)NO (configuration not stated), the IC50 [1] is reported as 120 nM, the IC50 [7] is reported as > 2500 nM and the IC50 (Histone deacetylase 2) is reported as > 2500 nM. For the same molecule, the IC50 (Histone deacetylase 1) was > 2500 nM.

For COc1ccc2c3c([nH]c2c1)C(C)NCC3 (configuration not stated), the Ki [3] was > 10000 nM and the IC50 [8] was > 100 µM.

With COc1cccc2[nH]c3c(c12)CCNC3 the K [9] was < 0.18 µM.

Work on c1ccc2c(c1)[nH]c1cnc3c4cccnc4[nH]c3c12 yielded an IC50 [10] of 12 nM, a Ki [11] of 2 nM and a Ki [12] of 200 nM. The Ki [13] was 16 nM, the IC50 [14] was 200 nM and the Ki [15] was > 10 µM. The IC50 [16] was 2 nM, the IC50 [17] was 16 nM and the Ki [18] was > 10 µM. The Ki [19] was 12 nM.
